{
  "source": "patent US9206190B2",
  "about": "(priority 2008, dated 2015)",
  "key": {"[1]": {"system": "rats", "conditions": "rat, in vivo"}, "[2]": {"system": "rats", "conditions": "rat, in vivo", "remark": "listed apart in the source"}},
  "data": [
    {"compound": "CC(C)C[C@H](CN)CC(=O)O", "note": "[Pregabalin]", "values": [
      {"measurement": "sedative clinical symptoms", "setting": "[1]", "result": "dose-dependant increase in the level of sedative clinical symptoms"},
      {"measurement": "effect on left and right paw withdrawal latencies compared to vehicle control", "setting": "[2]", "result": "failed to have a significant effect"}
    ]}
  ]
}
